Results from patent publication US12365651B2, “Use of pirfenidone and derivatives for modulation of B lymphocyte activity and organ protection from acute tissue damage” (Washington University, priority 2017, dated 2025).

Test system: purified B lymphocytes harvested from the spleen
Experiment: CD86 on cultured purified splenic B lymphocytes
Format: cell-based, mouse
Excerpt: We next sought to determine whether the response of B cells to necrotic cytosolic extracts and LPS were cell autonomous, by repeating the above in vitro experiments in purified B lymphocytes harvested from the spleen. […] In contrast, necrotic cytosolic extracts induced a small, non-statistically significant (p=0.62) upregulation of CD19+ CD86high B cells when compared to diluent treated cells (FIG. 10G). Similar results were obtained in splenic B lymphocytes from TIRAP−/− animals (FIG. 10H).
Peritoneal derived inflammatory cells (PDICs) were harvested from the peritoneal cavity of thioglycolate-stimulated wild-type and TIRAP−/− deficient mice. PDIC cultures contain an admixture of inflammatory cells, including CD19+ B cells (40). TIRAP deficient mice were a gift from Dr. Ruslan Medzhitov (Yale University, New Haven, CT). PDICs were harvested on day 4 after i.p. injection of 1 ml of thioglycolate medium (Millipore, Billerica, MA, USA). Mice were euthanized, and the peritoneal cavity was washed 3-4 times with 3 mLs of Dulbecco's modified medium containing 10% fetal calf serum. A 3 mL syringe with an 18-gauge needle was used to inject the peritoneal cavity and retrieve the medium containing PDICs. Harvested cells were centrifuged at 250 g for 5 minutes, re-suspended in 5 mL of media and then filtered through a 40 μm strainer. […]

**Q.** How did the “LPS induced expression of CD86 on B cells” value (B lymphocytes from the spleen, 24 hours, LPS + 0.5% pirfenidone) turn out when `Cc1ccc(=O)n(-c2ccccc2)c1` [Pirfenidone, 5 methyl-1-phenyl-2-[H] pyridone] was run?
**A.** significantly reduced

**Q.** And the “LPS provoked increase in CD19+ CD86high cells” value (purified splenic B lymphocytes, wild type, LPS)?
**A.** partially sensitive to inhibition
